Each cell line was assayed with O=C(Nc1cc(C(F)(F)F)cc(C(F)(F)F)c1)c1cc(Cl)ccc1O [IMD-0354] + O=C(CCCCCCC(=O)Nc1ccccc1)NO [Vorinostat] (partner 1 µM) (assay: relative viability (nuclei count vs DMSO), 5 days (fraction); higher = more cells survive). Details: first compound 0.04 µM.
In short: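 Lung cancer cell lines, seeded in 1536-well plates, were treated the following day by pin tool with a single drug or with five library-drug doses (not always all listed) in √10 steps on top of a fixed anchor-drug dose. Cells were fixed and nuclei stained in one step after 5 days, and nuclei were counted. Relative viability is the nuclei count for treated wells divided by that for vehicle wells, reported as medians of duplicate plates.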
In the case of LCLC-103H, the relative viability is reported as 0.79. NCI-H520 was tested, and the relative viability was 0.815. With NCI-H2126 the relative viability was 0.762. In the case of EMC-BAC-2, the relative viability is reported as 0.547. With NCI-H2085 the relative viability was 0.825. HCC-366 gave a relative viability of 0.314. NCI-H1666 gave a relative viability of 1.03. NCI-H596 showed a relative viability of 0.631. NCI-H1395 showed a relative viability of 0.873. NCI-H2087 was tested, and the relative viability was 0.806. NCI-H2342 showed a relative viability of 0.769. In the case of LK-2, the relative viability is reported as 0.291. Work on IA-LM yielded a relative viability of 0.89. NCI-H358 gave a relative viability of 0.768. With HCC-44 the relative viability was 1.03. SW 900 showed a relative viability of 0.496. NCI-H1648 showed a relative viability of 0.303. NCI-H1793 gave a relative viability of 0.698. NCI-H1944 showed a relative viability of 0.496. In the case of NCI-H2170, the relative viability is reported as 0.859. Cell Line ABC-1 has a relative viability of 1.1. With SK-MES-1 the relative viability was 1.4.

Same assay, conditions: first compound 0.1265 µM
In the case of NCI-H522, the relative viability is reported as 0.865. Cell Line NCI-H727 has a relative viability of 1.19. NCI-H1650 gave a relative viability of 0.724. In the case of NCI-H1993, the relative viability is reported as 0.696. Work on SK-LU-1 yielded a relative viability of 0.597. NCI-H838 showed a relative viability of 0.766. Cell Line LCLC-103H has a relative viability of 0.706. NCI-H520 showed a relative viability of 0.709. Cell Line NCI-H2126 has a relative viability of 0.826. EMC-BAC-2 gave a relative viability of 0.473. Work on NCI-H2085 yielded a relative viability of 0.902. HCC-366 showed a relative viability of 0.439. Cell Line NCI-H1666 has a relative viability of 1.01. Work on NCI-H596 yielded a relative viability of 0.694. NCI-H1395 gave a relative viability of 0.691. Work on NCI-H2087 yielded a relative viability of 0.837. NCI-H2342 gave a relative viability of 0.853. LK-2 was tested, and the relative viability was 0.284. Cell Line IA-LM has a relative viability of 0.737. NCI-H358 gave a relative viability of 0.753. In the case of HCC-44, the relative viability is reported as 1.05. With SW 900 the relative viability was 0.554. Cell Line NCI-H1648 has a relative viability of 0.694. NCI-H1793 showed a relative viability of 0.949. NCI-H1944 gave a relative viability of 0.575. In the case of NCI-H2170, the relative viability is reported as 0.89. ABC-1 showed a relative viability of 1.22. SK-MES-1 was tested, and the relative viability was 1.09.

Same assay, conditions: first compound 0.4 µM
In the case of NCI-H522, the relative viability is reported as 0.637. NCI-H727 was tested, and the relative viability was 0.856. With NCI-H1650 the relative viability was 0.377. NCI-H1993 was tested, and the relative viability was 0.582. In the case of SK-LU-1, the relative viability is reported as 0.623. With NCI-H838 the relative viability was 0.363. LCLC-103H was tested, and the relative viability was 0.539. NCI-H520 gave a relative viability of 0.51. For NCI-H2126, the relative viability was 0.692. In the case of EMC-BAC-2, the relative viability is reported as 0.419. NCI-H2085 showed a relative viability of 0.617. HCC-366 was tested, and the relative viability was 0.206. NCI-H1666 gave a relative viability of 0.805. In the case of NCI-H596, the relative viability is reported as 0.413. With NCI-H1395 the relative viability was 0.616. NCI-H2087 was tested, and the relative viability was 0.2. Cell Line NCI-H2342 has a relative viability of 0.53. In the case of IA-LM, the relative viability is reported as 0.397. NCI-H358 showed a relative viability of 0.323. For HCC-44, the relative viability was 1.07. For SW 900, the relative viability was 0.243. Work on NCI-H1648 yielded a relative viability of 0.289. NCI-H1793 was tested, and the relative viability was 0.461. For NCI-H1944, the relative viability was 0.384. With NCI-H2170 the relative viability was 0.573. ABC-1 was tested, and the relative viability was 0.575. Work on SK-MES-1 yielded a relative viability of 0.693.

Same assay, conditions: first compound 1.265 µM
Work on NCI-H522 yielded a relative viability of 0.757. NCI-H727 was tested, and the relative viability was 0.808. Work on NCI-H1650 yielded a relative viability of 0.199. Work on NCI-H1993 yielded a relative viability of 0.313. Work on SK-LU-1 yielded a relative viability of 0.194. In the case of NCI-H838, the relative viability is reported as 0.413. For LCLC-103H, the relative viability was 0.364. NCI-H520 gave a relative viability of 0.192. With NCI-H2126 the relative viability was 0.382. Cell Line NCI-H2085 has a relative viability of 0.376. In the case of HCC-366, the relative viability is reported as 0.165. NCI-H1666 was tested, and the relative viability was 0.908. In the case of NCI-H596, the relative viability is reported as 0.671. NCI-H1395 was tested, and the relative viability was 0.375. With NCI-H2087 the relative viability was 0.0721. In the case of NCI-H2342, the relative viability is reported as 0.697. With LK-2 the relative viability was 0.158. IA-LM gave a relative viability of 1.11. Work on NCI-H358 yielded a relative viability of 0.135. With HCC-44 the relative viability was 0.873. SW 900 was tested, and the relative viability was 0.227. With NCI-H1648 the relative viability was 0.617. Work on NCI-H1793 yielded a relative viability of 0.262. NCI-H1944 gave a relative viability of 0.251. For NCI-H2170, the relative viability was 0.74. Work on SK-MES-1 yielded a relative viability of 0.305.

Same assay, conditions: first compound 4 µM
Work on NCI-H522 yielded a relative viability of 0.449. NCI-H727 gave a relative viability of 0.787. NCI-H1650 gave a relative viability of 0.193. NCI-H1993 showed a relative viability of 0.498. In the case of SK-LU-1, the relative viability is reported as 0.264. With NCI-H838 the relative viability was 0.324. For LCLC-103H, the relative viability was 0.287. NCI-H520 was tested, and the relative viability was 0.248. Work on NCI-H2126 yielded a relative viability of 0.289. With EMC-BAC-2 the relative viability was 0.439. For NCI-H2085, the relative viability was 0.362. With HCC-366 the relative viability was 0.0652. NCI-H1666 was tested, and the relative viability was 0.832. For NCI-H596, the relative viability was 0.461. With NCI-H1395 the relative viability was 0.408. For NCI-H2087, the relative viability was 0.0731. NCI-H2342 was tested, and the relative viability was 0.364. With LK-2 the relative viability was 0.216. In the case of IA-LM, the relative viability is reported as 0.681. Work on NCI-H358 yielded a relative viability of 0.175. HCC-44 was tested, and the relative viability was 0.364. In the case of SW 900, the relative viability is reported as 0.265. NCI-H1648 showed a relative viability of 0.3. NCI-H1793 gave a relative viability of 0.287. NCI-H1944 gave a relative viability of 0.148. For NCI-H2170, the relative viability was 0.231. ABC-1 showed a relative viability of 0.443. SK-MES-1 showed a relative viability of 0.192.

From the supplement of paper PMC10307832
